Results: patent US9073919B2, “Pyrazolo pyridine derivatives as NADPH oxidase inhibitors” (GENKYOTEX SA, priority 2007, dated 2015)

Legend:
Format in all cases: cell-based, human
NOX [1] = experiment: Amplex Red, extracellular hydrogen peroxide, DMSO-differentiated HL60 cells; details: DPI 10 μM, % of the activity in control cells, 'usually'
Description: Human acute myeloid leukemia cell line HL-60 was cultured in RPMI 1640 (Invitrogen) supplemented with 10% heat-inactivated calf serum, 2 mM glutamine, 100 U/mL penicillin (Sigma), and 100 μg streptomycin (Sigma) at 37° C. under a humidified atmosphere of 5% CO2. HL60 differentiation to the neutrophil phenotype was triggered by adding Me2SO (final concentration 1.25% v/v for 6 days) to the culture medium.
(§1) Extracellular hydrogen peroxide was measured using Amplex UltraRed (Molecular Probes). Cells were trypsinized (1× Trypsin-EDTA), collected by centrifugation, and resuspended in HBSS supplemented with 1% glucose. Cells were seeded into black 96-well plates at a density of 50,000 cells in 200 μl testing buffer (HBSS 1% glucose containing 0.005 U/mL horseradish peroxidase (Roche) and 50 μM Amplex Red in the presence or absence of compounds according to the invention. As a control, DPI was included at a final concentration of 10 μM The plates were placed in the fluorescent Optima Fluorescent plate reader and kept at 37° C. during 20 min. Fluorescence was measured for […] with excitation and emission wavelengths of 544 nm and 590 nm respectively. NOX activities were expressed as % of the activity in control cells. Residual activity of DPI-treated cells was usually <10%.

NOX [2] = experiment: Nitroblue tetrazolium (NBT) superoxide test in cells; details: DPI 10 μM, % of the activity in control cells, 'usually'
Description: Human microglia cell line (HMC3, human microglia clone 3) (Janabi et al, 1995, Neurosci Lett 195:105) were cultured in MEM (Eagle's minimum essential medium) containing 10% FBS with 50 U/ml penicillin G sodium 50 μg/ml streptomycin sulfate, and incubated at 37° C. for 24 hours. IFN-γ (human IFN-γ, Roche. 11 040 596 001) was added to the culture medium for a final concentration of 10 ng/ml 24 h, before detection of O2^− formation. […]
Intracellular and extracellular superoxide was measured by a colorimetric technique using a quantitative nitroblue tetrazolium (NBT) test. SOD-inhibitable conversion of NBT to formazan, a fine blue precipitate, in the presence of superoxide anion was measured using Fluostar Optima spectrometer (BMG labtech). […] The absorption was measured at 630 nm. For calculation, the absorbance at 630 nm was normalized for each individual well. […] NOX activities were expressed as % of the activity in control cells. […]

NOX [3] = experiment: Chemiluminescence (luminol) ROS measurement in cells; details: % of the activity in control cells, 'usually'
Description: as §1
ROS was measured using the chemiluminescent probe luminol. Cells were cultured and plated as for Amplex Red except that the Amplex Red agent was replaced by 10 μg/mL luminol (Sigma 09235). Light emission was recorded continuously at 37° C. for 60 minutes using the luminescence function of the FluoStar Optima fluorescent plate reader. The mean of the four blank values was subtracted from each corrected value for each time point. NOX activities were expressed as % of the activity in control cells. […]

NOX [4] = experiment: H2DCF-DA fluorescence in TGF-β stimulated HUVEC; details: % of the activity in control cells, 'usually'
Description: HUVEC are cultured in endothelial basal medium supplemented with hydrocortisone (1 μg/mL, CalbioChem), bovine brain extract (12 μg/mL), gentamicin (50 μg/mL, CalbioChem), amphotericin B (50 ng/mL, CalBioChem EGF (10 ng/mL, and 10% FCS until the fourth passage. When the fifth passage was started, cells were cultured with a lower concentration of FCS (2%) in the absence of EGF, if not indicated otherwise. All experiments were done with cells of the fifth passage. The cells were incubated with OxLDL (oxidized low-density lipoprotein) or its buffer as control for 24 h, before detection of O2^− formation.
HUVEC were plated on coverslips and made quiescent overnight in 0.5% BSA before stimulation with TGF-β. Cells were loaded for 10 minutes with 5 μM CM-H2DCFDA in phenol-red-free medium in the dark and then treated with TGF-β (R&D Systems) in the presence or absence of compounds according to the invention. Cells were then visualized by immunofluorescence microscopy after fixation and staining of the nuclei with DAPI or examined live using confocal microscopy. DCF fluorescence was visualized at an excitation wavelength of 488 nm and emission at 515 to 540 nm. […] For calculation, the absorbance at […] was normalized to absorbance at […] for each individual well. […] NOX activities were expressed as % of the activity in control cells. […]

Measured: Residual activity of DPI-treated cells

c1ccc([I+]c2ccccc2)cc1 [DPI, Diphenyl-iodonium]
< 10%: all assays above
